Source: ChEMBL document CHEMBL4483862, “Open-source discovery of chemical leads for next-generation chemoprotective antimalarials” (2018)

Tested on: Plasmodium berghei
Experiment: Luciferase/luciferin-expressing antifolate-resistant parasites were used to infect a culture of HepG2 cells that were pre-incubated with compounds. Infected hepatocytes emit light due to the luciferase reaction. Assay results are presented as the percent inhibition of light emission compared to control. […]
Assay type: functional
Details: sporozoite; for IC90: read-out: LUCIFERASE INFECTION ASSAY - IC90
[1] = read-out: LUCIFERASE INFECTION ASSAY - IC50

SMILES	IC90 [µM]	IC50 [1] [µM]	other results
CC(=O)Nc1ccc2c(Cn3ncc(Cl)c(Cl)c3=O)cc(=O)oc2c1	9.76		IC50 (HEPG2TOX_HILL_SLOPE 3.1, HEPG2TOX_R_SQUARED 0.966, PBLUC_HILL_SLOPE 14.3, 0.748, PBLUC_R_SQUARED 0.481, 0.667, read-out: LUCIFERASE INFECTION ASSAY - IC50): 5.45 µM
COc1ccc(/C=C/C(=O)c2cc(F)c(Cl)cc2Cl)c(OC)c1OC	> 10	9.74	
CCOC(=O)Cc1csc(SCC(=O)c2cc(C)n(-c3ccc4c(c3)OCO4)c2C)n1	> 10		IC50 (PBLUC_HILL_SLOPE 1.81, PBLUC_R_SQUARED 0.311, read-out: LUCIFERASE INFECTION ASSAY - IC50): 4.63 µM
O=C(CCN1CCOCC1)Nc1cc(C(F)(F)F)ccc1Cl	> 9.8	> 9.8	
N#Cc1c(SCC(=O)c2ccccc2)nc2c(c1-c1ccccc1)CCCC2	6.39		IC50 (HEPG2TOX_HILL_SLOPE 0.131, HEPG2TOX_R_SQUARED 0.0459, PBLUC_HILL_SLOPE 1.72, PBLUC_R_SQUARED 0.594, read-out: LUCIFERASE INFECTION ASSAY - IC50): 1.78 µM
CCCNC(=O)c1nnsc1S(=O)(=O)c1ccc(Cl)cc1	> 9.54		IC50 (HEPG2TOX_HILL_SLOPE 12.7, HEPG2TOX_R_SQUARED 0.778, PBLUC_HILL_SLOPE 22.3, PBLUC_R_SQUARED 0.0764, read-out: LUCIFERASE INFECTION ASSAY - IC50): 9.02 µM
COc1ccc(-c2csc3ncnc(NCc4cccnc4)c23)cc1	> 10		IC50 (HEPG2TOX_HILL_SLOPE 6.97, HEPG2TOX_R_SQUARED 0.88, PBLUC_HILL_SLOPE 2.74, PBLUC_R_SQUARED 0.795, read-out: LUCIFERASE INFECTION ASSAY - IC50): 6.71 µM
CC(C)NCC(=O)Nc1cccc2c1C(=O)c1ccccc1C2=O	> 10.2	8.29	
CCOc1ccc2nc(N/N=C3/C(=O)N(c4ccccc4)N=C3C)sc2c1	9.42		IC50 (PBLUC_HILL_SLOPE 22.7, PBLUC_R_SQUARED 0.625, read-out: LUCIFERASE INFECTION ASSAY - IC50): 8.55 µM
CCCc1nc2oc3cc(OC)ccc3c(=O)c2c(=O)n1Cc1ccco1	> 9.01		IC50 (PBLUC_HILL_SLOPE 1.9, PBLUC_R_SQUARED 0.121, read-out: LUCIFERASE INFECTION ASSAY - IC50): 5.6 µM
COc1c(Cl)cc(Br)c(OC)c1C(=O)NC(=O)Nc1cc(C(F)(F)F)cc(C(F)(F)F)c1	2.27		IC50 (FFLUC_HILL_SLOPE 14.8, FFLUC_R_SQUARED 0.569, HEPG2TOX_HILL_SLOPE 7.93, HEPG2TOX_R_SQUARED 0.303, PBLUC_HILL_SLOPE 13, PBLUC_R_SQUARED 0.4, read-out: LUCIFERASE INFECTION ASSAY - IC50): 1.92 µM
CN(C)c1ccc(/C=C(\C#N)c2nc3ccccc3[nH]2)cc1	> 11.4	> 11.4	
CC(C)c1ccccc1N(C(=O)c1cc2ccccc2o1)c1nc2ccccc2s1	> 10		IC50 (HEPG2TOX_HILL_SLOPE 3.13, HEPG2TOX_R_SQUARED 0.898, read-out: LUCIFERASE INFECTION ASSAY - IC50): > 10 µM
Clc1ccc2nc(CSc3nnc4c(n3)[nH]c3ccccc34)cn2c1	9.67		IC50 (FFLUC_HILL_SLOPE 14.4, FFLUC_R_SQUARED 0.465, PBLUC_HILL_SLOPE 2.72, PBLUC_R_SQUARED 0.431, read-out: LUCIFERASE INFECTION ASSAY - IC50): 4.31 µM
O=C(Cn1cnc2sccc2c1=O)c1ccc(C2CCCCC2)cc1	> 10		IC50 (HEPG2TOX_HILL_SLOPE 0.627, HEPG2TOX_R_SQUARED 0.608, PBLUC_HILL_SLOPE 1.31, PBLUC_R_SQUARED 0.795, read-out: LUCIFERASE INFECTION ASSAY - IC50): 2.58 µM
Cc1nn(Cc2ccccc2)c(Cl)c1C(=O)OC(C)C(=O)N1CCN(Cc2ccccc2)CC1 (centres undefined)	> 10		IC50 (HEPG2TOX_HILL_SLOPE 0.446, HEPG2TOX_R_SQUARED 0.649, read-out: LUCIFERASE INFECTION ASSAY - IC50): > 10 µM
O=C(Nc1nc(=O)n(C(=O)c2cccs2)s1)c1ccccc1	> 9.96	> 9.96	
CN1/C(=C\C(=O)C[n+]2ccc3ccccc3c2)C(C)(C)c2ccccc21	1.83	1.05	
O=C(NCCSCc1ccc(Cl)cc1Cl)c1cccs1	3.51		IC50 (HEPG2TOX_HILL_SLOPE 0.0561, HEPG2TOX_R_SQUARED 0.0467, PBLUC_HILL_SLOPE 2.24, PBLUC_R_SQUARED 0.817, read-out: LUCIFERASE INFECTION ASSAY - IC50): 1.32 µM
O=C1CC(c2ccccc2Br)c2c(ccc3ccccc23)N1 (centres undefined)	> 9.37		IC50 (HEPG2TOX_HILL_SLOPE 2.07, HEPG2TOX_R_SQUARED 0.801, PBLUC_HILL_SLOPE 1.69, PBLUC_R_SQUARED 0.513, read-out: LUCIFERASE INFECTION ASSAY - IC50): 4.97 µM
Cc1ccc(CSc2nnc(NCc3ccccc3)s2)cc1	> 10		IC50 (HEPG2TOX_HILL_SLOPE 6.81, HEPG2TOX_R_SQUARED 0.677, read-out: LUCIFERASE INFECTION ASSAY - IC50): > 10 µM

SMILES	IC90 [µM]	IC50 [1] [µM]	other results
C(=N\c1ccccc1-n1cccc1)/c1cnc(-c2ccccc2)[nH]1	> 10.6		IC50 (PBLUC_HILL_SLOPE 8.03, PBLUC_R_SQUARED 0.709, read-out: LUCIFERASE INFECTION ASSAY - IC50): > 10.6 µM
CCC1=C(C(=O)OC)C(c2c(F)cccc2F)NC(=S)N1c1ccc2c(c1)OCCO2 (centres undefined)	> 10		IC50 (PBLUC_HILL_SLOPE 2.5, PBLUC_R_SQUARED 0.683, read-out: LUCIFERASE INFECTION ASSAY - IC50): 6.87 µM
Cc1nn(CC(=O)NCCCN2c3ccccc3Sc3ccccc32)c(C)c1[N+](=O)[O-]	> 10	> 10	
Cc1ccc(C)c(OCCN2CCN(CC(=O)Nc3c(C)cccc3C)CC2)c1	> 10	> 10	
COc1cc(OC)c2[nH]c(C(=O)NCCc3ccc(-c4csc(C)n4)s3)cc2c1	> 10	> 10	
COc1ccc(OC)c(NC(=O)c2ccc(NC3=C(Cl)C(=O)N(C4CCCCC4)C3=O)cc2)c1	8.05		IC50 (HEPG2TOX_HILL_SLOPE 3.19, HEPG2TOX_R_SQUARED 0.935, PBLUC_HILL_SLOPE 2.39, PBLUC_R_SQUARED 0.579, read-out: LUCIFERASE INFECTION ASSAY - IC50): 3.21 µM
N#C/C(=C\c1ccc(OC(=O)c2cccnc2)cc1)c1nnc2n1CCCCC2	> 10	> 10	
O=C(NNC(=S)Nc1cc(C(F)(F)F)cc(C(F)(F)F)c1)c1cccnc1Oc1ccccc1	> 6.59	> 6.59	
CCCn1nc(C(=O)Nc2ccccc2N2CCc3ccccc3C2)ccc1=O	> 10		IC50 (HEPG2TOX_HILL_SLOPE 0.246, HEPG2TOX_R_SQUARED 0.177, PBLUC_HILL_SLOPE 1.82, PBLUC_R_SQUARED 0.418, read-out: LUCIFERASE INFECTION ASSAY - IC50): 4.28 µM
Nc1ncnc(N/N=C/c2c(O)ccc3ccccc23)c1[N+](=O)[O-]	> 10		IC50 (HEPG2TOX_HILL_SLOPE 0.612, HEPG2TOX_R_SQUARED 0.82, read-out: LUCIFERASE INFECTION ASSAY - IC50): > 10 µM
N#CCCN(C(=O)COC(=O)c1ccc2c(c1)NC(=O)CS2)c1ccc2c(c1)OCCO2	> 10	> 10	
CCc1cc(C(=O)Nc2ncccc2O)sc1C	> 10		IC50 (FFLUC_HILL_SLOPE 0.955, FFLUC_R_SQUARED 0.833, PBLUC_HILL_SLOPE 2.67, PBLUC_R_SQUARED 0.448, read-out: LUCIFERASE INFECTION ASSAY - IC50): 4.95 µM
CCCCCCCCCCCc1nnc(SCc2ccccc2)n1-c1ccccc1C(F)(F)F	> 6.74		IC50 (FFLUC_HILL_SLOPE 1.21, FFLUC_R_SQUARED 0.637, read-out: LUCIFERASE INFECTION ASSAY - IC50): > 6.74 µM
COc1ccc(C(C)(O)c2nc(-c3cccc(F)c3)cs2)cc1 (centres undefined)	5.23	5.17	
COc1ccc(/C=C/C(=O)c2cc(Cl)c(OC)cc2OC)cc1O	1.26		IC50 (HEPG2TOX_HILL_SLOPE 1.17, HEPG2TOX_R_SQUARED 0.559, PBLUC_HILL_SLOPE 18.3, PBLUC_R_SQUARED 0.538, read-out: LUCIFERASE INFECTION ASSAY - IC50): 1.12 µM
COc1cccc(Nc2ncc(C(=O)c3cccc(-c4cccnc4)c3)[nH]2)c1	0.376		IC50 (HEPG2TOX_HILL_SLOPE 1.65, HEPG2TOX_R_SQUARED 0.891, PBLUC_HILL_SLOPE 14.3, PBLUC_R_SQUARED 0.795, read-out: LUCIFERASE INFECTION ASSAY - IC50): 0.322 µM
CCOc1ccc(OCC)c(S(=O)(=O)Oc2cccc3cccnc23)c1	7.66		IC50 (HEPG2TOX_HILL_SLOPE 2.73, HEPG2TOX_R_SQUARED 0.737, PBLUC_HILL_SLOPE 3.92, PBLUC_R_SQUARED 0.473, read-out: LUCIFERASE INFECTION ASSAY - IC50): 4.37 µM
COCCn1c(C(=O)OC)c(NC(=O)c2ccco2)c2cc(NC(C)Cc3ccc(C)cc3)cnc21 (centres undefined)	> 6.73	3.69	
CCOC(=O)c1c(S(=O)(=O)Nc2cccc(C(F)(F)F)c2)c(-c2ccccc2)n(-c2ccccc2)c1C	> 6.24		IC50 (FFLUC_HILL_SLOPE 40.4, FFLUC_R_SQUARED 0.424, read-out: LUCIFERASE INFECTION ASSAY - IC50): > 6.24 µM
O=C(COC(=O)c1ccc2[nH]c3c(c2c1)CCCC3)c1ccc2c(c1)OCCO2	9.92		IC50 (PBLUC_HILL_SLOPE 11.3, PBLUC_R_SQUARED 0.654, read-out: LUCIFERASE INFECTION ASSAY - IC50): 8.17 µM
O=C(Nc1cc(Cl)sc1Cl)Oc1cccnc1	10.6		IC50 (PBLUC_HILL_SLOPE 2.49, PBLUC_R_SQUARED 0.591, read-out: LUCIFERASE INFECTION ASSAY - IC50): 4.41 µM
